Experimental data as given in ChEMBL document CHEMBL1154433, “Synthesis of new substituted azetidinoyl and thiazolidinoyl-1,3,4-thiadiazino (6,5-b) indoles as promising anti-inflammatory agents” (Eur J Med Chem, 2008).

How the values were obtained:
[1] = system: Rattus norvegicus; test: Antiinflammatory activity in albino Charles-Foster rat assessed as inhibition of carrageenan-induced paw oedema at 50 mg/kg, po measured before 1 hr and after 3 hrs of carrageenan challenge relative to control; type: functional
[2] = system: Mus musculus; test: Analgesic activity in mouse assessed as protection against phenylquinone-induced writhing at 50 mg/kg, po administered 1 hr before phenylquinone challenge measured for 5 mins relative to control; type: functional
[3] = Acute toxicity in orally dosed albino mouse after 24 hrs; type: organism-based, albino Charles-Foster; conditions: in vivo, po, read-out: ALD50
[4] = biological target: Prostaglandin G/H synthase 1 (Homo sapiens) (UniProt P23219); test: Inhibition of COX1; set-up: concentration or dose not given beside the values; conditions: concentration not given here
[5] = biological target: T1, Prostaglandin G/H synthase 2 (Homo sapiens) (UniProt P35354); test: Inhibition of COX2; set-up: concentration or dose not given beside the values; conditions: concentration not given here
T1 sequence (whole entry): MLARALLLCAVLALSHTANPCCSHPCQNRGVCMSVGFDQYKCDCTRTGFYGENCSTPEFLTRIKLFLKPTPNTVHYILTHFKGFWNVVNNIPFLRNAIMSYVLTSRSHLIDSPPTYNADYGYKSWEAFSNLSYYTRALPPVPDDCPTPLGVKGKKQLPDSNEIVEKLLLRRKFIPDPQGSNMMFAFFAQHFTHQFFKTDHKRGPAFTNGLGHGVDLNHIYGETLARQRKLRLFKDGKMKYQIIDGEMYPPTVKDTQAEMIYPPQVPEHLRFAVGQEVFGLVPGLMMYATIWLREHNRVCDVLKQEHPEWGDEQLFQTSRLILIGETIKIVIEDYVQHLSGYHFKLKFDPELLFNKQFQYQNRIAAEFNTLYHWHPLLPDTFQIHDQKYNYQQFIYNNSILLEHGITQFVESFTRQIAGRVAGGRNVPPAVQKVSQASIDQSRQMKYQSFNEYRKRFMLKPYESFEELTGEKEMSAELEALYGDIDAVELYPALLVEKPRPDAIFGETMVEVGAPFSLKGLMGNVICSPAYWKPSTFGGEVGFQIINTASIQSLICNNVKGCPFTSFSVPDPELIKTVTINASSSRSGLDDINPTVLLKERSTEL

[6] = system: Rattus norvegicus; test: Antiinflammatory activity in albino Charles-Foster rat assessed as inhibition of carrageenan-induced paw oedema at 25 mg/kg, po measured before 1 hr and after 3 hrs of carrageenan challenge relative to control; type: functional
[7] = system: Rattus norvegicus; test: Antiinflammatory activity in albino Charles-Foster rat assessed as inhibition of carrageenan-induced paw oedema at 100 mg/kg, po measured before 1 hr and after 3 hrs of carrageenan challenge relative to control; type: functional
[8] = system: Mus musculus; test: Analgesic activity in mouse assessed as protection against phenylquinone-induced writhing at 25 mg/kg, po administered 1 hr before phenylquinone challenge measured for 5 mins relative to control; type: functional
[9] = system: Mus musculus; test: Analgesic activity in mouse assessed as protection against phenylquinone-induced writhing at 100 mg/kg, po administered 1 hr before phenylquinone challenge measured for 5 mins relative to control; type: functional
[10] = Toxicity in 24 hrs fasted Albino rat assessed as ulcerogenic activity after 8 hrs; type: organism-based; conditions: in vivo, read-out: UD50
[11] = system: Rattus norvegicus; test: Antiinflammatory activity in albino Charles-Foster rat assessed as inhibition of carrageenan-induced paw oedema at 5 mg/kg, po measured before 1 hr and after 3 hrs of carrageenan challenge relative to control; type: functional
[12] = system: Rattus norvegicus; test: Antiinflammatory activity in albino Charles-Foster rat assessed as inhibition of carrageenan-induced paw oedema at 7.5 mg/kg, po measured before 1 hr and after 3 hrs of carrageenan challenge relative to control; type: functional
[13] = system: Rattus norvegicus; test: Antiinflammatory activity in albino Charles-Foster rat assessed as inhibition of carrageenan-induced paw oedema at 10 mg/kg, po measured before 1 hr and after 3 hrs of carrageenan challenge relative to control; type: functional
[14] = system: Mus musculus; test: Analgesic activity in mouse assessed as protection against phenylquinone-induced writhing at 5 mg/kg, po administered 1 hr before phenylquinone challenge measured for 5 mins relative to controll; type: functional
[15] = system: Mus musculus; test: Analgesic activity in mouse assessed as protection against phenylquinone-induced writhing at 7.5 mg/kg, po administered 1 hr before phenylquinone challenge measured for 5 mins relative to controll; type: functional
[16] = system: Mus musculus; test: Analgesic activity in mouse assessed as protection against phenylquinone-induced writhing at 10 mg/kg, po administered 1 hr before phenylquinone challenge measured for 5 mins relative to control; type: functional

Sequence of Prostaglandin G/H synthase 1 (Homo sapiens) (P23219 whole entry): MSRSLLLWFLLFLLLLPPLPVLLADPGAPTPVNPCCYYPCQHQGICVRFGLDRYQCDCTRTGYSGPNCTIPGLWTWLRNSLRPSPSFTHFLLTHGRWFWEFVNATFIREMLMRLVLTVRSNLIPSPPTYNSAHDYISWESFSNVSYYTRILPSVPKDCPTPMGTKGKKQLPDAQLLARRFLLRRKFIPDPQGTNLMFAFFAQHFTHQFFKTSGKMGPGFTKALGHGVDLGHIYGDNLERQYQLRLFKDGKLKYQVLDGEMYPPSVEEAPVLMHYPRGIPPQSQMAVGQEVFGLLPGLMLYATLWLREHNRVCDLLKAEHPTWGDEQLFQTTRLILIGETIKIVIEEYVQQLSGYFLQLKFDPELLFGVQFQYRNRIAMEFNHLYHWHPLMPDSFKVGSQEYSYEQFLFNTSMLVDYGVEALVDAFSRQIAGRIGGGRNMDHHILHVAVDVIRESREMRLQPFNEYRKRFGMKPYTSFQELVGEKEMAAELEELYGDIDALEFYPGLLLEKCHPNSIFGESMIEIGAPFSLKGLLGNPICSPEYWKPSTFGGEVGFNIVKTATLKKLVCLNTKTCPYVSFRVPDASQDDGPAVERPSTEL

SMILES	inhibition in vivo at 50 mg/kg [1]	Activity [2]	LD50 at 24 h [3]	inhibition [4]	inhibition [5]	also measured
Oc1ccc(/C=N/c2nnc(CNc3nnc4c5ccccc5nc-4s3)s2)cc1	24.3%	16.87%	> 800 mg/kg	25.1%	31.5%	–
CCCCC1C(=O)N(c2ccccc2)N(c2ccccc2)C1=O [PHENYLBUTAZONE]	36.8%	32.5%	> 800 mg/kg	–	–	inhibition in vivo at 25 mg/kg [6]: 26.8%; inhibition in vivo at 100 mg/kg [7]: 64.7%; Activity [8]: 14.26%; Activity [9]: 32.5%; TD50 at 8 h [10]: 54.6 mg/kg
COc1ccccc1/C=N/c1nnc(CNc2nnc3c4ccccc4nc-3s2)s1	23.2%	22.23%	> 800 mg/kg	24.1%	26.7%	–
O=C1C(Cl)C(c2ccc(O)cc2)N1c1nnc(CNc2nnc3c4ccccc4nc-3s2)s1 (stereo not given)	32.7%	19.95%	> 800 mg/kg	39.3%	71.1%	–
COc1ccc(C2C(Cl)C(=O)N2c2nnc(CNc3nnc4c5ccccc5nc-4s3)s2)cc1 (stereo not given)	31.6%	21.27%	> 800 mg/kg	39.5%	66.3%	–
COc1ccc(/C=N/c2nnc(CNc3nnc4c5ccccc5nc-4s3)s2)cc1	22.4%	15.67%	> 800 mg/kg	26.2%	29.4%	–
COc1ccc2c(c1)c(CC(=O)O)c(C)n2C(=O)c1ccc(Cl)cc1 [INDOMETHACIN]	52.2%	–	–	–	–	inhibition in vivo at 5 mg/kg [11]: 52.2%; inhibition in vivo at 7.5 mg/kg [12]: 63.1%; inhibition in vivo at 10 mg/kg [13]: 93.2%; Activity [14]: 41.3%; Activity [15]: 59.25%; Activity [16]: 64.33%
O=C1CSC(c2ccccc2)N1c1nnc(CNc2nnc3c4ccccc4nc-3s2)s1 (stereo not given)	19.8%	9.7%	> 800 mg/kg	31.9%	36.7%	–
CN(C)c1ccc(/C=N/c2nnc(CNc3nnc4c5ccccc5nc-4s3)s2)cc1	21.4%	14.28%	> 800 mg/kg	24.2%	26.4%	–
O=C1CSC(c2ccc(O)cc2)N1c1nnc(CNc2nnc3c4ccccc4nc-3s2)s1 (stereo not given)	25.3%	9.95%	> 800 mg/kg	34.4%	44%	–
CN(C)c1ccc(C2SCC(=O)N2c2nnc(CNc3nnc4c5ccccc5nc-4s3)s2)cc1 (stereo not given)	28.7%	18%	> 800 mg/kg	32.2%	38.1%	–
O=C1C(Cl)C(c2ccccc2Cl)N1c1nnc(CNc2nnc3c4ccccc4nc-3s2)s1 (stereo not given)	28.8%	38%	> 800 mg/kg	69.1%	93.3%	inhibition in vivo at 25 mg/kg [6]: 28.8%; inhibition in vivo at 100 mg/kg [7]: 66.8%; Activity [8]: 19%; Activity [9]: 58%; TD50 at 8 h [10]: 133 mg/kg
Cc1ccc(C2C(Cl)C(=O)N2c2nnc(CNc3nnc4c5ccccc5nc-4s3)s2)cc1 (stereo not given)	32.2%	18.76%	> 800 mg/kg	38.4%	63.6%	–
O=C1C(Cl)C(c2ccccc2)N1c1nnc(CNc2nnc3c4ccccc4nc-3s2)s1 (stereo not given)	30.6%	21%	> 800 mg/kg	37%	74.6%	–
Cc1ccc(/C=N/c2nnc(CNc3nnc4c5ccccc5nc-4s3)s2)cc1	20.7%	12.67%	> 800 mg/kg	23.1%	25.4%	–
COc1ccccc1C1C(Cl)C(=O)N1c1nnc(CNc2nnc3c4ccccc4nc-3s2)s1 (stereo not given)	36.2%	35%	> 800 mg/kg	38.7%	64.3%	–
O=C1C(Cl)C(c2ccc(Cl)cc2)N1c1nnc(CNc2nnc3c4ccccc4nc-3s2)s1 (stereo not given)	34.7%	25.01%	> 800 mg/kg	40.9%	72.1%	–
COc1ccc(C2SCC(=O)N2c2nnc(CNc3nnc4c5ccccc5nc-4s3)s2)cc1 (stereo not given)	28.1%	10.76%	> 800 mg/kg	34.3%	40.1%	–
COc1ccccc1C1SCC(=O)N1c1nnc(CNc2nnc3c4ccccc4nc-3s2)s1 (stereo not given)	31.3%	22.56%	> 800 mg/kg	33.3%	38.5%	–
Cc1ccc(C2SCC(=O)N2c2nnc(CNc3nnc4c5ccccc5nc-4s3)s2)cc1 (stereo not given)	37%	22.08%	> 800 mg/kg	33.4%	36.3%	–
Clc1ccccc1/C=N/c1nnc(CNc2nnc3c4ccccc4nc-3s2)s1	26%	18.66%	> 800 mg/kg	28.7%	34.4%	–
C(=N\c1nnc(CNc2nnc3c4ccccc4nc-3s2)s1)/c1ccccc1	14.8%	12.16%	> 800 mg/kg	22.4%	24.2%	–
CN(C)c1ccc(C2C(Cl)C(=O)N2c2nnc(CNc3nnc4c5ccccc5nc-4s3)s2)cc1 (stereo not given)	33.6%	22.67%	> 800 mg/kg	37.2%	65.8%	–
O=C1CSC(c2ccccc2Cl)N1c1nnc(CNc2nnc3c4ccccc4nc-3s2)s1 (stereo not given)	38.5%	24.67%	> 800 mg/kg	43.1%	45.4%	inhibition in vivo at 25 mg/kg [6]: 22.4%; inhibition in vivo at 100 mg/kg [7]: 44.5%; Activity [8]: 12.32%; Activity [9]: 36.36%; TD50 at 8 h [10]: 167 mg/kg
O=C1CSC(c2ccc(Cl)cc2)N1c1nnc(CNc2nnc3c4ccccc4nc-3s2)s1 (stereo not given)	18.2%	8.78%	> 800 mg/kg	36.5%	44.1%	–
Clc1ccc(/C=N/c2nnc(CNc3nnc4c5ccccc5nc-4s3)s2)cc1	26%	16.5%	> 800 mg/kg	27.4%	33.7%	–
